Laboratory results as given in paper PMC10394814, “Discovery and evaluation of active compounds from Xuanfei Baidu formula against COVID-19 via SARS-CoV-2 M^pro” (Chinese Medicine, 2023).

Assays:
Omicron BA.2.3 variant = assay: Antiviral activity assay (CPE) in Vero E6 cells, Omicron BA.2.3; type: cell-based, SARS-CoV-2
Omicron BA.1.1 variant = assay: Antiviral activity assay (CPE) in Vero E6 cells, Omicron BA.1.1; type: cell-based, SARS-CoV-2

Cn1cnc(Cn2c(=O)[nH]/c(=N\c3cc4cn(C)nc4cc3Cl)n(Cc3cc(F)c(F)cc3F)c2=O)n1 [S-217622, reference compound]
EC50 (Omicron BA.2.3 variant): 235 nM
EC50 (Omicron BA.1.1 variant): 120 nM
